Experimental data from publication PMC8447932 (Chemical Science, 2021).

Tested on: spontaneously hypertensive (SHR) male rats
Experiment: Blood pressure in SHR rats after single PO administration
Format: in vivo, rat
Settings: 3 mg kg−1 per os once

For `COc1cc2nc(N3CCN(C(=O)C4CCCO4)CC3)nc(N)c2cc1OC` (centres unmarked) [compound 74, terazosin], the “systolic BP lowering effect in comparison with the vehicle at 120 min” value (120 min time point) was “no statistically significant activity” and the “systolic BP decrease in comparison with corresponding vehicle groups” value (after 15 min and 60 min of treatment) was “significant systolic BP decrease”.
